# Measurements: patent publication US12686687B2, “Compounds and uses thereof” (Foghorn Therapeutics Inc., priority 2019, dated 2026)
# pIC50: −log10 of the molar value.
# What was measured:
# [1] = molecular target: T1, BRD9 bromodomain (Flag-BRD9 P133-K239; Swiss Prot Q9H8M2) (Homo sapiens, UniProt Q9H8M2); test: BRD9 bromodomain TR-FRET competition binding assay; conditions: 3 nM Flag-BRD9, 3.75 nM biotinylated ligand, 90 minutes at room temperature
# T1 construct: His-Flag-BRD9 (P133-K239); Swiss Prot Q9H8M2; His6 with TEV site (mgsshhhhhhenlyfq/) (N, cleaved yes); made in house
# T1 sequence (Q9H8M2 133-239): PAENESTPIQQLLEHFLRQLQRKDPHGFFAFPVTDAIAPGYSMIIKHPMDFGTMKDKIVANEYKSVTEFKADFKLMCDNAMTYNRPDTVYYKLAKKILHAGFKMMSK
# Method: Cleaved His tag was removed by purification. […] DMSO or 3-fold serially diluted compounds were then added to the Proxiplate followed by addition of Flag-BRD9. After a 10-minute incubation at room temperature, Eu-W1024 anti-FLAG (PerkinElmer, AD0273) was added.
# [2] = molecular target: T2, Nanoluciferase-BRD9 fusion protein (3×FLAG-NLuc-BRD9) in SYO-1 cells (Homo sapiens, UniProt Q9H8M2); test: SYO1 BRD9 NanoLuc degradation assay; assay type: cell-based; conditions: 6 hours treatment, 1 μM top dose; read-out: SYO1 BRD9-NanoLuc degradation IC50
# T2 construct: expressed in transfected cells; host or cells: SYO-1
# T2 sequence (Q9H8M2 1-597): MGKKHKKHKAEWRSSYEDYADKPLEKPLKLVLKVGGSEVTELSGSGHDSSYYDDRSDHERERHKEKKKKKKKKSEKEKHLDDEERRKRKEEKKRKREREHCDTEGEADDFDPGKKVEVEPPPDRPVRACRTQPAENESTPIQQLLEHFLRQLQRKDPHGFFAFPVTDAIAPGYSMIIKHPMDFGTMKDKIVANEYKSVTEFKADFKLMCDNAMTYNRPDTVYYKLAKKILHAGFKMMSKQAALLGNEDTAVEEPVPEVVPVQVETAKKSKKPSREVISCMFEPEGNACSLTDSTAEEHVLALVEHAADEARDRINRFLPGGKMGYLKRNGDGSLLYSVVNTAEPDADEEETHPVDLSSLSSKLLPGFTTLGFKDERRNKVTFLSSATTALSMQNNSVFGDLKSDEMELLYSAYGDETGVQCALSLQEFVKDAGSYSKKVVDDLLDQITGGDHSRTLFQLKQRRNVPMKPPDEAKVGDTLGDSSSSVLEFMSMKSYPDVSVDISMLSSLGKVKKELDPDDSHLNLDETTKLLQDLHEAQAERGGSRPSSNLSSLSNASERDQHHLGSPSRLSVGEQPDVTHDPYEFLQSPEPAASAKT
# Procedure, shortened: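 Stable SYO-1 line expressing 3×FLAG-NLuc-BRD9 was seeded at 8000 cells/well, then treated next day for 6 h with 10-point 3-fold dilutions (top 1 μM final). Nano-Glo luminescence was read. % inhibition was normalised to DMSO (high control) and 1 μM reference BRD9 degrader (low control).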
SMILES,pIC50 [1],DC50 [2] [nM]
"Cn1cc(-c2cccc(C(F)(F)F)c2)c2sc(C(=N)NC3CCS(=O)(=O)NC3)cc2c1=O (stereo not drawn) [Compound B1, N-(1,1-dioxo-1λ6,2-thiazinan-4-yl)-5-methyl-4-oxo-7-[3-(trifluoromethyl)phenyl]thieno[3,2-c]pyridine-2-carboximidamide]",< 8.00,
"COc1cc(-c2cn(C)c(=O)c3cc(C(=O)NC4CCN(C)CC4)sc23)cc(OC)c1CN(C)CC(=O)NCCOCCOc1cccc2c1C(=O)N(C1CCC(=O)NC1=O)C2=O (stereo not drawn) [Compound D14, 7-(4-[[([[2-(2-[[2-(2,6-dioxopiperidin-3-yl)-1,3-dioxoisoindol-4 yl]oxy]ethoxy)ethyl]carbamoyl]methyl)(methyl)amino]methyl]-3,5-dimethoxyphenyl)-5-methyl-N-(1-methylpiperidin-4-yl)-4-oxothieno[3,2-c]pyridine-2-carboxamide]",< 8.00,> 100
"COc1cc(-c2cn(C)c(=O)c3cc(NC(=O)C4CCCN(CCCCCOc5cccc6c5C(=O)N(C5CCC(=O)NC5=O)C6=O)C4)sc23)cc(OC)c1CN(C)C (stereo not drawn) [Compound D9, N-(7-[4-[(dimethylamino)methyl]-3,5-dimethoxyphenyl]-5-methyl-4-oxothieno[3,2-c]pyridin-2-yl)-1-(5-[[2-(2,6-dioxopiperidin-3-yl)-1,3-dioxoisoindol-4-yl]oxy]pentyl)piperidine-3-carboxamide]",< 8.00,> 1000
"COc1cc(-c2cn(C)c(=O)c3cc(-c4nc5ccncc5[nH]4)sc23)cc(OC)c1CN(C)C [Compound B2, 7-[4-[(dimethylamino)methyl]-3,5-dimethoxyphenyl]-2-[3H-imidazo[4,5-c]pyridin-2-yl]-5-methylthieno[3,2-c]pyridin-4-one]",> 8.00,
"COc1cc(-c2cn(C)c(=O)c3cc(NC(=O)C4CCCN(C(=O)CCOCCOCCNc5cccc6c5C(=O)N(C5CCC(=O)NC5=O)C6=O)C4)sc23)cc(OC)c1CN(C)C (stereo not drawn) [Compound D5, N-(7-[4-[(dimethylamino)methyl]-3,5-dimethoxyphenyl]-5-methyl-4-oxothieno[3,2-c]pyridin-2-yl)-1-[3-[2-(2-[[2-(2,6-dioxopiperidin-3-yl)-1,3-dioxoisoindol-4-yl]amino]ethoxy)ethoxy]propanoyl]piperidine-3-carboxamide]",< 7.00,> 1000
"COc1cc(-c2cn(C)c(=O)c3cc(NC(=O)C4CCN(C)CC4)sc23)cc(OC)c1CN(C)C [Compound B3, N-(7-[4-[(dimethylamino)methyl]-3,5-dimethoxyphenyl]-5-methyl-4-oxo-4H,5H-thieno[3,2-c]pyridin-2-yl)-1-methylpiperidine-4-carboxamide]",< 8.00,
"COc1cc(-c2cn(C)c(=O)c3cc(NC(=O)[C@@H]4CCCN(C(=O)CCCCOc5cccc6c5C(=O)N(C5CCC(=O)NC5=O)C6=O)C4)sc23)cc(OC)c1CN(C)C (stereo partly drawn) [Compound D7, (3R)—N-(7-[4-[(dimethylamino)methyl]-3,5-dimethoxyphenyl]-5-methyl-4-oxothieno[3,2-c]pyridin-2-yl)-1-(5-[[2-(2,6-dioxopiperidin-3-yl)-1,3-dioxoisoindol-4-yl]oxy]pentanoyl)piperidine-3-carboxamide]",< 7.00,> 100
"COc1cc(-c2cn(C)c(=O)c3cc(NC(=O)[C@H]4CCCN(C(=O)CCCCOc5cccc6c5C(=O)N(C5CCC(=O)NC5=O)C6=O)C4)sc23)cc(OC)c1CN(C)C (stereo partly drawn) [Compound D8, (3S)—N-(7-[4-[(dimethylamino)methyl]-3,5-dimethoxyphenyl]-5-methyl-4-oxothieno[3,2-c]pyridin-2-yl)-1-(5-[[2-(2,6-dioxopiperidin-3-yl)-1,3-dioxoisoindol-4-yl]oxy]pentanoyl)piperidine-3-carboxamide]",< 7.00,> 100
"COc1cc(-c2cn(C)c(=O)c3cc(C(=N)NC4CCS(=O)(=O)CC4)sc23)ccc1OCC(=O)NCCCCCCCCNc1cccc2c1CN(C1CCC(=O)NC1=O)C2=O (stereo not drawn) [Compound D2, 2-(4-[2-[N-(1,1-dioxo-A6-thian-4-yl)carbamimidoyl]-5-methyl-4-oxo-4H,5H-thieno[3,2-c]pyridin-7-yl]-2-methoxyphenoxy)-N-(8-[[2-(2,6-dioxopiperidin-3-yl)-1-oxo-2,3-dihydro-1H-isoindol-4-yl]amino]octyl)acetamide]",> 8.00,> 10
"COc1cc(-c2cn(C)c(=O)c3cc(C(=O)NC4CCN(CCCCCOc5cccc6c5C(=O)N(C5CCC(=O)NC5=O)C6=O)CC4(F)F)sc23)cc(OC)c1CN(C)C (stereo not drawn) [Compound D13, 7-[4-[(dimethylamino)methyl]-3,5-dimethoxyphenyl]-N-[1-(5-[[2-(2,6-dioxopiperidin-3-yl)-1,3-dioxoisoindol-4-yl]oxy]pentyl)-3,3-difluoropiperidin-4-yl]-5-methyl-4-oxothieno[3,2-c]pyridine-2-carboxamide]",> 8.00,< 10
"COc1cc(-c2cn(C)c(=O)c3cc(NC(=O)C4CN(C)CCO4)sc23)cc(OC)c1CN(C)C (stereo not drawn) [Compound B4, N-(7-[4-[(Dimethylamino)methyl]-3,5-dimethoxyphenyl]-5-methyl-4-oxo-4H,5H-thieno[3,2-c]pyridin-2-yl)-4-methylmorpholine-2-carboxamide Formic Acid]",< 8.00,
"COc1ccc(-c2cn(C)c(=O)c3cc(-c4ncc[nH]4)sc23)cc1OC [Compound B9, 7-(3,4-dimethoxyphenyl)-2-(1H-imidazol-2-yl)-5-methyl-4H,5H-thieno[3,2-c]pyridine-4-one]",< 8.00,
"COc1cc(-c2cn(C)c(=O)c3cc(C(=N)NC4CCS(=O)(=O)CC4)sc23)ccc1OCC(=O)O [Compound B8, 2-(4-[2-[N-(1,1-dioxo-1λ6-thian-4-yl)carbamimidoyl]-5-methyl-4-oxo-4H,5H-thieno[3,2-c]pyridin-7-yl]-2-methoxyphenoxy)acetic Acid Trifluoroacetic Acid]",< 8.00,
"COc1cc(-c2cn(C)c(=O)c3cc(C(=O)N4CCN(C)CC4)sc23)cc(OC)c1CN(C)C [Compound B7, 7-[4-[(dimethylamino)methyl]-3,5-dimethoxyphenyl]-5-methyl-2-(4-methylpiperazine-1-carbonyl)-4H,5H-thieno[3,2-c]pyridin-4-one]",< 7.00,
"COc1ccc(-c2cn(C)c(=O)c3ccsc23)cc1OC [Compound B10, 7-(3,4-dimethoxyphenyl)-5-methyl-4H,5H-thieno[3,2-c]pyridin-4-one]",< 8.00,
"COc1cc(-c2cn(C)c(=O)c3cc(C(=O)NC4CCN(C)CC4)sc23)cc(OC)c1CN(C)C [Compound B6, 7-[4-[(dimethylamino)methyl]-3,5-dimethoxyphenyl]-5-methyl-N-(1-methylpiperidin-4-yl)-4-oxo-4H,5H-thieno[3,2-c]pyridine-2-carboxamide]",> 8.00,
"COc1cc(-c2cn(C)c(=O)c3cc(C(=O)NC4CCC(=O)NC4)sc23)cc(OC)c1CN(C)C (stereo not drawn) [Compound B5, 7-[4-[(dimethylamino)methyl]-3,5-dimethoxyphenyl]-5-methyl-4-oxo-N-(6-oxopiperidin-3-yl)-4H,5H-thieno[3,2-c]pyridine-2-carboxamide]",> 8.00,
